The values that follow come from US9212182B2, “Bicyclic sulfonamide compounds as sodium channel inhibitors” (AMGEN INC., priority 2013, dated 2015).

The target in the test is Nav 1.7 (Homo sapiens (Human), UniProt Q15858). The experiment in a line: in-vitro Nav 1.7 PX (IC50). In kind it is cell-based.

SMILES strings stand for the structures. Read-outs that look alike come from different tables or passages of the source.

Sequence of Nav 1.7 (Q15858 whole entry): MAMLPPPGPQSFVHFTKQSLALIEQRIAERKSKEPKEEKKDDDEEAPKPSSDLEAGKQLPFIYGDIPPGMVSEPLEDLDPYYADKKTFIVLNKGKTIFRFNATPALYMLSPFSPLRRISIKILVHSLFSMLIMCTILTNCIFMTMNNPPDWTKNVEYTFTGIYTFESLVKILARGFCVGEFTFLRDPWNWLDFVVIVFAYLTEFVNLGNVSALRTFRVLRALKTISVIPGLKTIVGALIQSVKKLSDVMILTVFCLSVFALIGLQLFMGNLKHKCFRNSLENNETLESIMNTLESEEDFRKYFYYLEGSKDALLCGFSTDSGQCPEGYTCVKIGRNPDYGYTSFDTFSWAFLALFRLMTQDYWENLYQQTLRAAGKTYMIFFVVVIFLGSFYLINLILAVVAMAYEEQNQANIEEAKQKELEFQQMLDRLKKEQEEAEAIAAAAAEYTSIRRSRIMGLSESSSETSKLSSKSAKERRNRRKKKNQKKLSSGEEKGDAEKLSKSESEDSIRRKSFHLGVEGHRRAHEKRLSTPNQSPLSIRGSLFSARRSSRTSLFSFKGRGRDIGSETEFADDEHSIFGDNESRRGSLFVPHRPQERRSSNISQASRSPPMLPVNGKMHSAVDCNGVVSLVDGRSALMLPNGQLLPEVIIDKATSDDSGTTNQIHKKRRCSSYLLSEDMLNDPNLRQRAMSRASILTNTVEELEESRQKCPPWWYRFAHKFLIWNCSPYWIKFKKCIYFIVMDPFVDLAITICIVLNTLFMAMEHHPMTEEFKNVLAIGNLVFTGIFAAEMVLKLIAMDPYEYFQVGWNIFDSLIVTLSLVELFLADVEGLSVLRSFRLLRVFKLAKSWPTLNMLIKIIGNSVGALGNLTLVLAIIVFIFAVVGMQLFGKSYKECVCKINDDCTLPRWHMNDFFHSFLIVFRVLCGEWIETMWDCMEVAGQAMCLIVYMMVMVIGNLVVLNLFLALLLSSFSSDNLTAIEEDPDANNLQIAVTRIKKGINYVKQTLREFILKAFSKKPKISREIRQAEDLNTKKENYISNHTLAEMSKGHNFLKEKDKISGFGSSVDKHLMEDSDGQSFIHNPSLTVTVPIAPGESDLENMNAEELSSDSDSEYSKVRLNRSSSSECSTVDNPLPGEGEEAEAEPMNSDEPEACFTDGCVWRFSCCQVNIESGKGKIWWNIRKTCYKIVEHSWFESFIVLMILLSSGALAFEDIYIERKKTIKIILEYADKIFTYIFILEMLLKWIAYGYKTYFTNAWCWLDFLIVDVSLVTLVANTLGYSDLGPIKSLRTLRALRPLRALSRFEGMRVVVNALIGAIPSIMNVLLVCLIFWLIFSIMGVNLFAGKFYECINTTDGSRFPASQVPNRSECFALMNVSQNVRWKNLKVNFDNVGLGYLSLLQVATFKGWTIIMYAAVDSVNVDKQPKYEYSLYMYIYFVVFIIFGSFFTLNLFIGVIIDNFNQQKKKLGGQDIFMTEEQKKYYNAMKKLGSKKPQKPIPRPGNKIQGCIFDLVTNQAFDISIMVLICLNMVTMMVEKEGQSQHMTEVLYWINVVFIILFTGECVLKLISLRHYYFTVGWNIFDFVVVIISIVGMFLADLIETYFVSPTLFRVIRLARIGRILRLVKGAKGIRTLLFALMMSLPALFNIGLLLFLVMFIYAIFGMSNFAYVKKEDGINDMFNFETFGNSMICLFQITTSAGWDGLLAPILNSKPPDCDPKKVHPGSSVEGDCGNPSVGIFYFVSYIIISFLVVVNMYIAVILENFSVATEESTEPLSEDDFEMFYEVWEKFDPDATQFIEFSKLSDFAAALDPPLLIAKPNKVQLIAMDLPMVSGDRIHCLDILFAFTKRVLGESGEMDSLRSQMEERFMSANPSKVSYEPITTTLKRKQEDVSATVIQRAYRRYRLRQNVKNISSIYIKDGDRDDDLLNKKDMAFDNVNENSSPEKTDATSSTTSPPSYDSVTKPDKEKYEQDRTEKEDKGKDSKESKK

With `COc1cc(-c2ccc(C)c(C#N)c2)c(F)cc1-n1c(=O)ccc2cc(S(=O)(=O)Nc3ccon3)ccc21` (atropisomer, axis not shown; (P)) [Example 524, (P)-1-(3′-cyano-2-fluoro-5-methoxy-4′-methyl-4-biphenylyl)-N-3-isoxazolyl-2-oxo-1,2-dihydro-6-quinolinesulfonamide], the IC50 (in-vitro PatchXpress (PX)) was 25 nM.
On to `COc1cc(-c2ccc(Cl)cc2)ccc1-n1c(=O)ccc2cc(S(=O)(=O)Nc3cccnn3)ccc21` [Example 765, 1-(4′-chloro-3-methoxy-4-biphenylyl)-2-oxo-N-3-pyridazinyl-1,2-dihydro-6-quinolinesulfonamide], for which the IC50 (in-vitro Nav 1.7 PX data) turned out to be 112 nM.
`COc1cc(-c2cccc(C)c2)c(F)cc1-n1c(=O)ccc2cc(S(=O)(=O)Nc3ccon3)ccc21` (atropisomer, axis not shown; (P)) [Example 522, (P)-1-(2-fluoro-5-methoxy-3′-methyl-4-biphenylyl)-N-3-isoxazolyl-2-oxo-1,2-dihydro-6-quinolinesulfonamide] gave an IC50 (in-vitro PatchXpress (PX)) of 9 nM.
The compound `COc1cc(-c2cc(F)cc(Cl)c2)c(F)cc1-n1c(=O)ccc2cc(S(=O)(=O)Nc3cnccn3)ccc21` (atropisomer, axis not shown; (P)) [Example 543, (P)-1-(3′-chloro-2,5′-difluoro-5-methoxy-4-biphenylyl)-2-oxo-N-2-pyrazinyl-1,2-dihydro-6-quinolinesulfonamide] registered a concentration for half-maximal inhibition (IC50) of 13 nM.
On to `COc1ccc(-c2cc(OC)c(-n3c(=O)ccc4cc(S(=O)(=O)Nc5ccon5)ccc43)cc2F)cn1` [Example 729, 1-(5-fluoro-2-methoxy-4-(6-methoxy-3-pyridinyl)phenyl)-N-3-isoxazolyl-2-oxo-1,2-dihydro-6-quinolinesulfonamide], for which half-maximal inhibition (in-vitro Nav 1.7 PX data) (IC50) was put at 598 nM.
Still for that read-out and setting: the figure for `COc1cc(-c2cc(OC)c(-n3c(=O)ccc4cc(S(=O)(=O)Nc5ncccn5)ccc43)cc2C)ccc1F` [Example 960, 1-(4′-fluoro-3′,5-dimethoxy-2-methyl-4-biphenylyl)-2-oxo-N-2-pyrimidinyl-1,2-dihydro-6-quinolinesulfonamide] is 36 nM.
For the compound `COc1cc(-c2cccc(F)c2)c(Cl)cc1-n1c(=O)cc(C)c2cc(S(=O)(=O)Nc3ccon3)ccc21` [Example 348, P-1-(2-chloro-3′-fluoro-5-methoxy-[1,1′-biphenyl]-4-yl)-N-(isoxazol-3-yl)-4-methyl-2-oxo-1,2-dihydroquinoline-6-sulfonamide], the IC50 was found to be 159 nM.
Compound `COc1ccc(-c2cc(OC)c(-n3c(=O)ccc4cc(S(=O)(=O)Nc5ccon5)ccc43)cc2F)cc1C` [Example 749, 1-(2-fluoro-4′,5-dimethoxy-3′-methyl-4-biphenylyl)-N-3-isoxazolyl-2-oxo-1,2-dihydro-6-quinolinesulfonamide] returned an IC50 (in-vitro Nav 1.7 PX data) of 48 nM.
Same read-out and setting: to `COc1cc(-c2ccc(F)c(C)c2)c(F)cc1-n1c(=O)ccc2cc(S(=O)(=O)Nc3ncco3)ccc21` [Example 943, 1-(2,4′-difluoro-5-methoxy-3′-methyl-4-biphenylyl)-N-1,3-oxazol-2-yl-2-oxo-1,2-dihydro-6-quinolinesulfonamide] belongs 13 nM.
Compound `COc1cc(-c2cc(OC)c(-n3c(=O)ccc4cc(S(=O)(=O)Nc5cc(C)ncn5)ccc43)cc2F)ccc1F` [Example 1009, 1-(2,4′-difluoro-3′,5-dimethoxy-4-biphenylyl)-N-(6-methyl-4-pyrimidinyl)-2-oxo-1,2-dihydro-6-quinolinesulfonamide] registered an IC50 (in-vitro Nav 1.7 PX data) of 151 nM.
`COc1cc(-c2cc(OC)c(-n3c(=O)ccc4cc(S(=O)(=O)Nc5ccon5)ccc43)cc2F)ccc1C#N` [Example 720, 1-(4′-cyano-2-fluoro-3′,5-dimethoxy-4-biphenylyl)-N-3-isoxazolyl-2-oxo-1,2-dihydro-6-quinolinesulfonamide] yielded an IC50 (in-vitro Nav 1.7 PX data) of 54 nM.
Take `COc1cc(-c2cc(F)cc(F)c2F)c(F)cc1-n1c(=O)ccc2cc(S(=O)(=O)Nc3ccon3)ccc21` (atropisomer, axis not shown; (M)) [Example 515, (M)-N-3-isoxazolyl-2-oxo-1-(2,2′,3′,5′-tetrafluoro-5-methoxy-4-biphenylyl)-1,2-dihydro-6-quinolinesulfonamide]: it took 5160 nM to reach half-maximal inhibition (in-vitro PatchXpress (PX)) (IC50).
Compound `COc1cc(C[C@H]2CCCOC2)c(F)cc1-n1c(=O)ccc2cc(S(=O)(=O)Nc3ccon3)ccc21` [Example 1118, 1-(5-fluoro-2-methoxy-4-((3R)-tetrahydro-2H-pyran-3-ylmethyl)phenyl)-N-3-isoxazolyl-2-oxo-1,2-dihydro-6-quinolinesulfonamide, 1-(5-fluoro-2-methoxy-4-((3S)-tetrahydro-2H-pyran-3-ylmethyl)phenyl)-N-3-isoxazolyl-2-oxo-1,2-dihydro-6-quinolinesulfonamide] displayed an IC50 (in-vitro Nav 1.7 PX data) of 1480 nM.
Compound `COc1cc(-c2cc(Cl)cc(C#N)c2)c(F)cc1-n1c(=O)ccc2cc(S(=O)(=O)Nc3ccon3)ccc21` (atropisomer, axis not shown; (P)) [Example 518, (P)-1-(3′-chloro-5′-cyano-2-fluoro-5-methoxy-4-biphenylyl)-N-3-isoxazolyl-2-oxo-1,2-dihydro-6-quinolinesulfonamide] returned an IC50 (in-vitro PatchXpress (PX)) of 2000 nM.
For the compound `COc1cc(CC2CCC2)c(F)cc1-n1c(=O)ccc2cc(S(=O)(=O)Nc3ccon3)ccc21` [Example 1078, 1-(4-(cyclobutylmethyl)-5-fluoro-2-methoxyphenyl)-N-3-isoxazolyl-2-oxo-1,2-dihydro-6-quinolinesulfonamide], the IC50 (in-vitro Nav 1.7 PX data) turned out to be 69 nM.
Compound `COc1cc(-c2ccc(Cl)c(C#N)c2)c(F)cc1-n1c(=O)ccc2cc(S(=O)(=O)Nc3ccon3)ccc21` (atropisomer, axis not shown; (P)) [Example 508, (P)-1-(4′-chloro-3′-cyano-2-fluoro-5-methoxy-4-biphenylyl)-N-3-isoxazolyl-2-oxo-1,2-dihydro-6-quinolinesulfonamide] registered an IC50 (in-vitro PatchXpress (PX)) of 7 nM.
For the setting “in-vitro Nav 1.7 PX data”, `COc1ccc(-c2ccc(F)c(C)c2)cc1-n1c(=O)ccc2cc(S(=O)(=O)Nc3ccon3)ccc21` [Example 878, 1-(4′-fluoro-4-methoxy-3′-methyl-3-biphenylyl)-N-3-isoxazolyl-2-oxo-1,2-dihydro-6-quinolinesulfonamide] registered an IC50 of 21 nM.
Compound `COc1cc(F)cc(-c2ccc(-n3c(=O)ccc4cc(S(=O)(=O)Nc5ccnc(C)n5)ccc43)c(OC)c2)c1` [Example 1003, 1-(3′-fluoro-3,5′-dimethoxy-4-biphenylyl)-N-(2-methyl-4-pyrimidinyl)-2-oxo-1,2-dihydro-6-quinolinesulfonamide] came in with an IC50 (in-vitro Nav 1.7 PX data) of 1260 nM.
The compound `COc1cc(-c2ccc(F)c(Cl)c2)c(F)cc1-n1c(=O)ccc2cc(S(=O)(=O)Nc3ccon3)ccc21` (atropisomer, axis not shown; (P)) [Example 365, (P)-1-(3′-chloro-2,4′-difluoro-5-methoxy-4-biphenylyl)-N-3-isoxazolyl-2-oxo-1,2-dihydro-6-quinolinesulfonamide] gave a 50% inhibitory concentration (IC50) (in-vitro PatchXpress (PX)) of 9 nM.
Compound `COc1cc(-c2ccc(C(F)(F)F)cc2)c(F)cc1-n1c(=O)ccc2cc(S(=O)(=O)Nc3ncccn3)ccc21` [Example 797, 1-(2-fluoro-5-methoxy-4′-(trifluoromethyl)-4-biphenylyl)-2-oxo-N-2-pyrimidinyl-1,2-dihydro-6-quinolinesulfonamide] came in with an IC50 (in-vitro Nav 1.7 PX data) of 43 nM.
`COc1cc(-c2ccc(Cl)cc2)c(F)cc1-n1c(=O)ccc2cc(S(=O)(=O)Nc3ccc(F)cn3)ccc21` (atropisomer, axis not shown; (P)) [Example 1163, (P)-1-(4′-chloro-2-fluoro-5-methoxy-4-biphenylyl)-N-(5-fluoro-2-pyridinyl)-2-oxo-1,2-dihydro-6-quinolinesulfonamide] gave an IC50 (in-vitro Nav 1.7 PX data, Table 4) of 159 nM.
For the compound `COc1cc(-c2cc(OC)c(-n3c(=O)ccc4cc(S(=O)(=O)Nc5ccon5)ccc43)cc2F)ccn1` [Example 739, 1-(5-fluoro-2-methoxy-4-(2-methoxy-4-pyridinyl)phenyl)-N-3-isoxazolyl-2-oxo-1,2-dihydro-6-quinolinesulfonamide], the IC50 (in-vitro Nav 1.7 PX data) turned out to be 224 nM.
Turning to `COc1cc(-c2cc(F)cc(C(F)(F)F)c2)c(F)cc1-n1c(=O)ccc2cc(S(=O)(=O)Nc3ccon3)ccc21` [Example 711, 1-(2,3′-difluoro-5-methoxy-5′-(trifluoromethyl)-4-biphenylyl)-N-3-isoxazolyl-2-oxo-1,2-dihydro-6-quinolinesulfonamide], under “in-vitro Nav 1.7 PX data”, the IC50 worked out at 9 nM.
With `COc1cc(-c2cc(Cl)ccc2F)c(F)cc1-n1c(=O)ccc2cc(S(=O)(=O)Nc3ccon3)ccc21` [Example 707, 1-(5′-chloro-2,2′-difluoro-5-methoxy-4-biphenylyl)-N-3-isoxazolyl-2-oxo-1,2-dihydro-6-quinolinesulfonamide], the IC50 (in-vitro Nav 1.7 PX data) amounted to 12 nM.
With `COc1cc(-c2ccccc2)c(F)cc1-n1c(=O)ccc2cc(S(=O)(=O)Nc3ccon3)ccc21` [Example 701, 1-(2-fluoro-5-methoxy-4-biphenylyl)-N-3-isoxazolyl-2-oxo-1,2-dihydro-6-quinolinesulfonamide], under “in-vitro Nav 1.7 PX data”, half-maximal inhibition (IC50) required 104 nM.
With `COc1cc(-c2ccc(Cl)c(C)c2)c(F)cc1-n1c(=O)ccc2cc(S(=O)(=O)Nc3ncc(F)cn3)ccc21` (atropisomer, axis not shown; (P)) [Example 692, (P)-1-(4′-chloro-2-fluoro-5-methoxy-3′-methyl-4-biphenylyl)-N-(5-fluoro-2-pyrimidinyl)-2-oxo-1,2-dihydro-6-quinolinesulfonamide], the IC50 (in-vitro Nav 1.7 PX data) amounted to 30 nM.
In turn, `Cc1cc(-c2cc(C)c(-n3c(=O)ccc4cc(S(=O)(=O)Nc5ncccn5)ccc43)cc2F)ccc1Cl` (atropisomer, axis not shown; (M)) [Example 650, (M)-1-(4′-chloro-2-fluoro-3′,5-dimethyl-4-biphenylyl)-2-oxo-N-2-pyrimidinyl-1,2-dihydro-6-quinolinesulfonamide] had an IC50 (in-vitro Nav 1.7 PX data) of 3800 nM.
`COc1cc(F)ccc1-c1cc(OC)c(-n2c(=O)ccc3cc(S(=O)(=O)Nc4ccon4)ccc32)cc1F` [Example 741, 1-(2,4′-difluoro-2′,5-dimethoxy-4-biphenylyl)-N-3-isoxazolyl-2-oxo-1,2-dihydro-6-quinolinesulfonamide] yielded an IC50 (in-vitro Nav 1.7 PX data) of 71 nM.
